# Counter-ions that a name gives are not always drawn.
# How the values were obtained:
# [1] = Phase 1a single ascending dose study: safety and tolerability (treatment-emergent adverse events); assay type: in vivo, human; details: for Tolerability of single oral doses / Dose-limiting toxicity: po; for Maximum tolerated dose: single oral dose in humans, not yet determined
# Protocol: UV-4 ((2R,3R,4R,5S)-2-(hydroxymethyl)-1-(9-methoxynonyl)piperidine-3,4,5-triol, also called N-(9’-methoxynonyl)-1-deoxynojirimycin, or MON-DNJ) hydrochloride was evaluated in a first-in-human, randomized, single-center, double-blind, placebo-controlled, parallel group, single ascending dose Phase 1a clinical trial in healthy subjects (Figs 1 and 2, ClinicalTrials.gov Identifier NCT02061358 https://clinicaltrials.gov/ct2/show/NCT02061358). The primary objective was to determine the safety and tolerability of a single-ascending oral dose of UV-4 hydrochloride (Fig 3). […] The secondary objective was to determine PK parameters describing absorption and elimination of UV-4 following a single oral dose of UV-4 hydrochloride. Eight cohorts of eight subjects each were enrolled and completed the study. In each cohort, six subjects received UV-4 as the hydrochloride; two received placebo. Subjects were screened against study eligibility criteria up to four weeks (Days -28 to -2) before admission to the clinic (Day -1). Dosing was performed on an inpatient basis. Subjects remained in clinic for 48 hours post-dosing for PK sample collection and safety assessments and were discharged from the clinic on Day 3. Subjects returned to the clinic on Day 4 for additional safety assessments, then again on Day 9 ± 1 for a final follow-up visit.
# Safety assessments included telemetry (pre-dose and 12 hours during and post-dosing), 12-lead ECG measurements, vital signs (supine and standing) including systolic blood pressure (SBP) and diastolic blood pressure (DBP) (mmHg), pulse rate (beats/minute), respiratory rate (breaths/minute), and oral temperature, physical examinations, clinical laboratory assessments (hematology, clinical chemistry, coagulation, urinalysis, platelet function), stool evaluation including occult blood, and adverse events (AEs).
# Safety oversight was provided by an independent safety monitor (ISM), Safety Review Committee (SRC), and Safety Monitoring Committee (SMC). In addition, a cardiologist reviewed all cases with AEs related to heart rate and blood pressure. Summary statistics for subject baseline characteristics and measurements, disposition, exposure, and safety were tabulated by cohort in a blinded manner for the review by the SRC and SMC. Blinded individual case information was also supplied to the SMC and cardiologist for review. SRC reviews occurred after all subjects in a given cohort completed evaluations, or after predefined criteria triggered a review (halting criteria). Provided satisfactory safety review, subjects were enrolled into the next higher dose cohort. In addition, the SMC met to review all safety and exposure data after completion of Cohort 3. All AEs were coded to System Organ Class (SOC) and Preferred Term (PT) using the Medical Dictionary for Regulatory Activities (MedDRA), Version 16.1 [34].
# All AEs were graded for severity and relationship to study product, according to one of the following categories:
# • Grade 1: An event that is easily tolerated by the subject, causing minimal discomfort and not interfering with everyday activities; • Grade 2: An event that is sufficiently discomforting to interfere with normal everyday activities; • Grade 3: An event that prevents normal everyday activities; • Grade 4: An event that requires an emergency room visit or hospitalization […]
# 9.1 Specification of Safety Parameters
# Safety is a primary outcome measure.
# Adverse events will be evaluated from time of dose administration through the follow-up visit. Adverse events that have not resolved at the follow-up visit will be followed until resolution or until medically stable. […]
# If a vital sign measurement is observed to be abnormal, it may be repeated up to a total of 2 times at 5 to 10 minutes intervals. If a normal value is obtained, no further repeat measurements are required. If the value is still abnormal after 2 repeats, the least abnormal value will be utilized for grading the AE. The AE will […]
# [2] = cited from earlier work
# [3] = ICH accelerated stability storage condition; cited from earlier work
# [4] = parameters: method as in Investigator’s Brochure (IB); details: in vitro; ref Investigator’s Brochure (IB); cited from earlier work
smiles,measurement,setting,value
"COCCCCCCCCCN1C[C@H](O)[C@@H](O)[C@H](O)[C@H]1CO [UV-4, N-(9’-methoxynonyl)-1-deoxynojirimycin]",Grade 2 Related TEAE: number (%) of subjects,"[1]; both, human, in vivo",1 (2.1%)
same,Grade 3 Related TEAE: number (%) of subjects,"[1]; both, human, in vivo",0
same,Grade 3 TEAE: number (%) of subjects,"[1]; both, human, in vivo",1 (2.1%)
same,Incidence of Bristol Stool Scale Type 7,"[1]; both, human, in vivo",no incidence of Bristol Stool Scale Type 7
same,"Related TEAE, Abdominal Pain: number (%) of subjects","[1]; both, human, in vivo",1 (2.1%)
same,"Related TEAE, Balance disorder: number (%) of subjects","[1]; both, human, in vivo",1 (2.1%)
same,"Related TEAE, Blood Calcium Decreased: number (%) of subjects","[1]; both, human, in vivo",1 (2.1%)
same,"Related TEAE, Blood Pressure Decreased: number (%) of subjects","[1]; both, human, in vivo",0
same,"Related TEAE, Cardiac disorders (System Organ Class): number (%) of subjects","[1]; both, human, in vivo",1 (2.1%)
same,"Related TEAE, Dizziness postural: number (%) of subjects","[1]; both, human, in vivo",1 (2.1%)
same,"Related TEAE, Dizziness: number (%) of subjects","[1]; both, human, in vivo",1 (2.1%)
same,"Related TEAE, Ear and labyrinth disorders (System Organ Class): number (%) of subjects","[1]; both, human, in vivo",1 (2.1%)
same,"Related TEAE, Gastrointestinal disorders (System Organ Class): number (%) of subjects","[1]; both, human, in vivo",3 (6.3%)
same,"Related TEAE, General disorders and administration site conditions (System Organ Class): number (%) of subjects","[1]; both, human, in vivo",1 (2.1%)
same,"Related TEAE, Headache: number (%) of subjects","[1]; both, human, in vivo",2 (4.2%)
same,"Related TEAE, Investigations (System Organ Class): number (%) of subjects","[1]; both, human, in vivo",2 (4.2%)
same,"Related TEAE, Lipase increased: number (%) of subjects","[1]; both, human, in vivo",1 (2.1%)
same,"Related TEAE, Local Swelling: number (%) of subjects","[1]; both, human, in vivo",1 (2.1%)
same,"Related TEAE, Nervous system disorder (System Organ Class): number (%) of subjects","[1]; both, human, in vivo",4 (8.3%)
same,"Related TEAE, Neutrophil count decreased: number (%) of subjects","[1]; both, human, in vivo",0
same,"Related TEAE, Presyncope: number (%) of subjects","[1]; both, human, in vivo",0
same,"Related TEAE, Proteinuria: number (%) of subjects","[1]; both, human, in vivo",1 (2.1%)
same,"Related TEAE, Renal and urinary disorders (System Organ Class): number (%) of subjects","[1]; both, human, in vivo",1 (2.1%)
same,"Related TEAE, Supraventricular tachycardia: number (%) of subjects","[1]; both, human, in vivo",0
same,"Related TEAE, Ventricular tachycardia: number (%) of subjects","[1]; both, human, in vivo",1 (2.1%)
same,"Related TEAE, Vertigo: number (%) of subjects","[1]; both, human, in vivo",1 (2.1%)
same,"Related TEAE, White blood cell count decreased: number (%) of subjects","[1]; both, human, in vivo",0
same,Subjects with ≥1 TEAE: number (%) of subjects,"[1]; both, human, in vivo",43 (89.6%)
same,Tolerability of single oral doses,"[1]; both, human, in vivo",safe at all doses tested up to 1000 mg
same,Grade 1 Related TEAE: number (%) of subjects,"[1]; human, in vivo",10 (20.8%)
same,TEAE Haematuria: number (%) of subjects,"[1]; human, in vivo",4 (8.3)
same,TEAE Headache: number (%) of subjects,"[1]; human, in vivo",3 (6.3)
same,TEAE Prothrombin time prolonged: number (%) of subjects,"[1]; human, in vivo",4 (8.3)
same,Dose-dependent increases in adverse events,[1]; in vivo,not observed
same,Fecal occult blood findings,[1]; in vivo,None of the subjects had positive fecal occult blood findings
same,Subjects reporting abdominal pain,[1]; in vivo,two
same,Subjects who vomited,[1]; in vivo,one
same,Dose-limiting toxicity,[1]; in vivo,No dose limiting toxicity was observed
same,Tolerability of single oral doses,[1]; in vivo,well tolerated
same,Maximum tolerated dose,[1],> 1000 mg
same,Accumulation,"[2]; BID or TID dosing after 14 days in mouse or dog, ref Investigator’s Brochure (IB)",did not accumulate
"COCCCCCCCCCN1C[C@H](O)[C@@H](O)[C@H](O)[C@H]1CO [UV-4B, N-(9’-methoxynonyl)-1-deoxynojirimycin hydrochloride]",Stability trend of drug substance batches,[3],increases in water content
same,"Mutagenicity, mouse lymphoma assay",[4],not found to be mutagenic or clastogenic
same,"Related TEAE, Balance disorder: number (%) of subjects","[1]; both, human, in vivo",1/48
same,"Related TEAE, Dizziness postural: number (%) of subjects","[1]; both, human, in vivo",1/48
same,"Related TEAE, Dizziness: number (%) of subjects","[1]; both, human, in vivo",1/48
same,"Related TEAE, Headache: number (%) of subjects","[1]; both, human, in vivo",2/48
same,Dose-limiting toxicity,[1]; in vivo,not observed
same,Maximum tolerated dose,[1],> 1000 mg
same,Bioavailability of the hydrochloride salt,[2]; animal studies,high bioavailability

# From PMC9387934, “Randomized single oral dose phase 1 study of safety, tolerability, and pharmacokinetics of Iminosugar UV-4 Hydrochloride (UV-4B) in healthy subjects” (PLoS Neglected Tropical Diseases, 2022)
